Test results as given in US7811797B2, “α-isomaltosylglucosaccharide-forming enzyme, process and uses of the same” (Kabushiki Kaisha Hayashibara Seibutsu Kagaku Kenkyujo, priority 2000, dated 2010).

Columns and labels:
[1] = tested on: α-isomaltosylglucosaccharide-forming enzyme; assay: Transfer-acceptor specificity, Enzyme of Strain A19; format: biochemical, Arthrobacter globiformis A19; conditions: acceptor 1.6%, PINE-DEX #100 donor 4%, one unit/g donor, 30° C., pH 8.4, 24 hours
Protocol: (§1) Using different saccharides, it was tested whether the saccharides were used as transferring-acceptors for the α-isomaltosylglucosaccharide-forming enzyme of the present invention. A solution of D-glucose, D-xylose, L-xylose, D-galactose, D-fructose, D-mannose, D-arabinose, D-fucose, D-psicose, L-sorbose, L-rhamnose, methyl-α-glucopyranoside, methyl-β-glucopyranoside, N-acetyl-glucosamine, sorbitol, trehalose, isomaltose, isomaltotriose, cellobiose, gentibiose, glycerol, maltitol, lactose, sucrose, α-cyclodextrin, β-cyclodextrin, γ-cyclodextrin, or L-ascorbic acid was prepared.
(§2) To each solution with a saccharide concentration of 1.6% was added “PINE-DEX #100”, a partial starch hydrolysate, as a saccharide donor, to give a concentration of 4%, and admixed with one unit/g saccharide donor, d.s.b., of either of purified specimens of α-isomaltosylglucosaccharide-forming enzyme from Bacillus globisporus C9 obtained by the method in Experiment 4-2, Bacillus globisporus C11 obtained by the method in Experiment 7-2, Bacillus globisporus N75 obtained by the method in Experiment 11-2, or Arthrobacter globiformis A19 obtained by the method in Experiment 15-2, and incubated at 30° C. and pH 6.0, except that pH 8.4 was used for the enzyme from Arthrobacter globiformis A19, for 24 hours. The reaction mixtures of the post-enzymatic reactions were analyzed on gas chromatography (abbreviated as “GLC” hereinafter) for monosaccharides and disaccharides as acceptors, and on HPLC for trisaccharides as acceptors to confirm whether these saccharides could be used as their transfer acceptors. In the case of performing GLC, the following apparatuses and conditions are used: GLC apparatus, “GC-16A” commercialized by Shimadzu Corporation, Tokyo, Japan; column, a stainless-steel column, 3 mm in diameter and 2 m in length, packed with 2% “SILICONE OV-17/[…]”, commercialized by GL Sciences Inc., Tokyo, Japan; carrier gas, nitrogen gas at a flow rate of 40 ml/min under temperature conditions of increasing from 160° C. to 320° C. at an increasing temperature rate of 7.5° C./min; and detection, a hydrogen flame ionization detector. In the case of HPLC analysis, the apparatuses and conditions used are: HPLC apparatus, “CCPD” commercialized by Tosoh Corporation, Tokyo, Japan; column, “ODS-AQ-303” commercialized by YMC Co., Ltd., Tokyo, Japan; eluent, water at a flow rate of 0.5 ml/min; and detection, a differential refractometer.

[2] = tested on: α-isomaltosylglucosaccharide-forming enzyme; assay: Transfer-acceptor specificity, Enzyme of Strain C9; format: biochemical, Bacillus globisporus C9; conditions: acceptor 1.6%, PINE-DEX #100 donor 4%, one unit/g donor, 30° C., pH 6.0, 24 hours
Protocol: as §1, §2

[3] = tested on: α-isomaltosylglucosaccharide-forming enzyme; assay: Action on saccharides (substrates), Enzyme of Strain C9; format: biochemical, Bacillus globisporus C9; design: key: −: it showed no change; +: it showed a slight reduction of the color spot of the substrate and the formation of other reaction product; ++: it showed a high reduction of the color spot of the substrate and the formation of other reaction product; +++: it showed a substantial disappearance of the substrate spot and the formation of other reaction product; conditions: two units/g substrate, substrate 2% (w/v), 30° C., pH 6.0, 24 hours, TLC
Protocol: (§3) It was tested whether saccharides can be used as substrates for the α-isomaltosylglucosaccharide-forming enzyme. For the purpose, a solution of maltose, maltotriose, maltotetraose, maltopentaose, maltohexaose, maltoheptaose, isomaltose, isomaltotriose, panose, isopanose, trehalose, kojibiose, nigerose, neotrehalose, cellobiose, gentibiose, maltitol, maltotriitol, lactose, sucrose, erlose, selaginose, maltosyl glucoside, or isomaltosyl glucoside was prepared.
(§4) To each of the above solutions was added two units/g substrate of a purified specimen of α-isomaltosylglucosaccharide-forming enzyme from either Bacillus globisporus C9 obtained by the method in Experiment 4-2, Bacillus globisporus C11 obtained by the method in Experiment 7-2, Bacillus globisporus N75 obtained by the method in Experiment 11-2, or Arthrobacter globiformis A19 obtained by the method in Experiment 15-2, and the resulting each solution was adjusted to give a substrate concentration of 2% (w/v) and incubated at 30° C. and pH 6.0, except for using pH 8.4 for the enzyme from Arthrobacter globiformis A19, for 24 hours. The enzyme solutions before and after the enzymatic reactions were respectively analyzed on TLC disclosed in Experiment 1 to confirm whether the enzymes acted on these substrates.

[4] = tested on: α-isomaltosylglucosaccharide-forming enzyme; assay: Transfer-acceptor specificity, Enzyme of Strain C11; format: biochemical, Bacillus globisporus C11; conditions: acceptor 1.6%, PINE-DEX #100 donor 4%, one unit/g donor, 30° C., pH 6.0, 24 hours
Protocol: as §1, §2

[5] = tested on: α-isomaltosylglucosaccharide-forming enzyme; assay: Action on saccharides (substrates), Enzyme of Strain A19; format: biochemical, Arthrobacter globiformis A19; design: key: −: it showed no change; +: it showed a slight reduction of the color spot of the substrate and the formation of other reaction product; ++: it showed a high reduction of the color spot of the substrate and the formation of other reaction product; +++: it showed a substantial disappearance of the substrate spot and the formation of other reaction product; conditions: two units/g substrate, substrate 2% (w/v), 30° C., pH 8.4, 24 hours, TLC
Protocol: as §3, §4

[6] = tested on: α-isomaltosylglucosaccharide-forming enzyme; assay: Action on saccharides (substrates), Enzyme of Strain C11; format: biochemical, Bacillus globisporus C11; design: key: −: it showed no change; +: it showed a slight reduction of the color spot of the substrate and the formation of other reaction product; ++: it showed a high reduction of the color spot of the substrate and the formation of other reaction product; +++: it showed a substantial disappearance of the substrate spot and the formation of other reaction product; conditions: two units/g substrate, substrate 2% (w/v), 30° C., pH 6.0, 24 hours, TLC
Protocol: as §3, §4

[7] = tested on: α-isomaltosylglucosaccharide-forming enzyme; assay: Action on saccharides (substrates), Enzyme of Strain N75; format: biochemical, Bacillus globisporus N75; design: key: −: it showed no change; +: it showed a slight reduction of the color spot of the substrate and the formation of other reaction product; ++: it showed a high reduction of the color spot of the substrate and the formation of other reaction product; +++: it showed a substantial disappearance of the substrate spot and the formation of other reaction product; conditions: two units/g substrate, substrate 2% (w/v), 30° C., pH 6.0, 24 hours, TLC
Protocol: as §3, §4

[8] = tested on: α-isomaltosylglucosaccharide-forming enzyme; assay: Transfer-acceptor specificity, Enzyme of Strain N75; format: biochemical, Bacillus globisporus N75; conditions: acceptor 1.6%, PINE-DEX #100 donor 4%, one unit/g donor, 30° C., pH 6.0, 24 hours
Protocol: as §1, §2

Compound | Product of transferring reaction, Enzyme of Stain A19 [1] | Product of transferring reaction, Enzyme of Strain C9 [2] | Enzymatic action, Enzyme of Strain C9 [3] | Product of transferring reaction, Enzyme of Strain C11 [4] | Enzymatic action, Enzyme of Strain A19 [5] | Enzymatic action, Enzyme of Strain C11 [6] | Enzymatic action, Enzyme of Strain N75 [7] | Product of transferring reaction, Enzyme of Strain N75 [8]
O=C[C@H](O)[C@@H](O)[C@H](O[C@@H]1O[C@H](CO)[C@@H](O)[C@H](O)[C@H]1O)[C@H](O)CO [Cellobiose] | ++ (a saccharide-transferred product was detected in an amount over ten percent through transfer reaction to acceptor) | ++ (a saccharide-transferred product was detected in an amount over ten percent through transfer reaction to acceptor) | − | ++ (a saccharide-transferred product was detected in an amount over ten percent through transfer reaction to acceptor) | − | − | − | ++ (a saccharide-transferred product was detected in an amount over ten percent through transfer reaction to acceptor)
OC[C@H]1O[C@@H](OC[C@H]2OC(O)[C@H](O)[C@@H](O)[C@@H]2O)[C@H](O)[C@@H](O)[C@@H]1O (some centres unmarked) [Gentibiose] | + (a saccharide-transferred product was detected in an amount over one percent but less than ten percent through transfer reaction to acceptor) | ++ (a saccharide-transferred product was detected in an amount over ten percent through transfer reaction to acceptor) | − | ++ (a saccharide-transferred product was detected in an amount over ten percent through transfer reaction to acceptor) | − | − | − | ++ (a saccharide-transferred product was detected in an amount over ten percent through transfer reaction to acceptor)
OC[C@H]1O[C@H](OC[C@H]2OC(O)[C@H](O)[C@@H](O)[C@@H]2O)[C@H](O)[C@@H](O)[C@@H]1O (some centres unmarked) [Isomaltose] | + (a saccharide-transferred product was detected in an amount over one percent but less than ten percent through transfer reaction to acceptor) | ++ (a saccharide-transferred product was detected in an amount over ten percent through transfer reaction to acceptor) | − | ++ (a saccharide-transferred product was detected in an amount over ten percent through transfer reaction to acceptor) | − | − | − | ++ (a saccharide-transferred product was detected in an amount over ten percent through transfer reaction to acceptor)
OC[C@H]1O[C@H](OC[C@H]2O[C@H](OC[C@H]3OC(O)[C@H](O)[C@@H](O)[C@@H]3O)[C@H](O)[C@@H](O)[C@@H]2O)[C@H](O)[C@@H](O)[C@@H]1O (some centres unmarked) [Isomaltotriose] | ∀ (a saccharide-transferred product was detected in an amount less than one percent through transfer reaction to acceptor) | ++ (a saccharide-transferred product was detected in an amount over ten percent through transfer reaction to acceptor) | − | ++ (a saccharide-transferred product was detected in an amount over ten percent through transfer reaction to acceptor) | − | − | − | ++ (a saccharide-transferred product was detected in an amount over ten percent through transfer reaction to acceptor)
OC[C@H]1O[C@@H](O[C@H]2[C@H](O)[C@@H](O)C(O)O[C@@H]2CO)[C@H](O)[C@@H](O)[C@H]1O (some centres unmarked) [Lactose] | ++ (a saccharide-transferred product was detected in an amount over ten percent through transfer reaction to acceptor) | ++ (a saccharide-transferred product was detected in an amount over ten percent through transfer reaction to acceptor) | − | ++ (a saccharide-transferred product was detected in an amount over ten percent through transfer reaction to acceptor) | − | − | − | ++ (a saccharide-transferred product was detected in an amount over ten percent through transfer reaction to acceptor)
Maltoheptaose |  |  | +++ |  | +++ | +++ | +++ | 
Maltohexaose |  |  | +++ |  | +++ | +++ | +++ | 
Maltopentaose |  |  | +++ |  | +++ | +++ | +++ | 
Maltotriose |  |  | ++ |  | ++ | ++ | ++ | 
